“And” between values parts separate entries of the source, which are not always exact repeats. Identical values can stand only once.
Columns and labels:
[1] = target: hCA II (Homo sapiens, UniProt P00918); settings: read-out: KI hCA II; stopped-flow CO2 hydrase assay; mean from three different assays, errors ±5–10%
[2] = target: hCA I (Homo sapiens, UniProt P00915); settings: read-out: KI hCA I; stopped-flow CO2 hydrase assay; mean from three different assays, errors ±5–10%
[3] = target: hCA IV (Homo sapiens, UniProt P22748); settings: read-out: KI hCA IV; stopped-flow CO2 hydrase assay; mean from three different assays, errors ±5–10%
[4] = target: T1, hCA IX (Homo sapiens, UniProt Q16790); type: biochemical
T1 construct: made in house

[5] = target: T2, TRPV1 receptor (Homo sapiens, UniProt Q8NER1); assay: TRPV1 assay, Fluo-4NW fluorescence in SH-SY5Y-TRPV1 cells; type: cell-based; settings: read-out: EC50 on TRPV1 receptor activity (agonism)
T2 construct: expressed in transfected cells
Protocol: SH-SY5Y-TRPV1 cells (kindly provided by Johanna Lilja and Anna Forsby (University of Stockholm, Stockholm, Sweden))[40] were cultured in 96 wells. Upon 90% confluence had been reached, the cells were loaded with 5 μM Fluo-4NW for 1 h at 37 °C. […] Briefly, after measuring the basal fluorescence of the plate (four cycles), testing compounds were added to the plate, and the fluorescence was measured for additional 10 cycles; thereafter, 10 μM capsaicin was added with a microinjector and the fluorescence was monitored for an additional 10 cycles.

[6] = target: hCA XII (Homo sapiens, UniProt O43570); settings: read-out: KI hCA XII; stopped-flow CO2 hydrase assay; mean from three different assays, errors ±5–10%
[7] = target: hCA VII (Homo sapiens, UniProt P43166); settings: read-out: KI hCA VII; stopped-flow CO2 hydrase assay; mean from three different assays, errors ±5–10%
hCA VII, sequence (P43166 whole entry): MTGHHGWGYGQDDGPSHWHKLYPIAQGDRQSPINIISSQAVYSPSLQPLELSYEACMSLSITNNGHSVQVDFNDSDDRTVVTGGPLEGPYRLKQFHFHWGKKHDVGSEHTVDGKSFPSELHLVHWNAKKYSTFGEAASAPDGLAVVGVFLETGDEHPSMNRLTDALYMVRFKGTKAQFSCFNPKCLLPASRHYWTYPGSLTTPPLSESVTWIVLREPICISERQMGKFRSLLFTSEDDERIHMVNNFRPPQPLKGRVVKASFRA

hCA IV, sequence (P22748 19-312): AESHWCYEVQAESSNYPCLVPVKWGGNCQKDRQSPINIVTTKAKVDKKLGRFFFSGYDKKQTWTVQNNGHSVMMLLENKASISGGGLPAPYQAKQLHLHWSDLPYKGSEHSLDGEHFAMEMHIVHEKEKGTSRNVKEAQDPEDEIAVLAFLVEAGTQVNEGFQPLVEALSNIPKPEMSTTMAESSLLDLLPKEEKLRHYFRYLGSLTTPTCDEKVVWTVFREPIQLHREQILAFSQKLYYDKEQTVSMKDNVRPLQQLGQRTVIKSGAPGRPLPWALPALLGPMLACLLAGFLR
hCA XII, sequence (O43570 25-354): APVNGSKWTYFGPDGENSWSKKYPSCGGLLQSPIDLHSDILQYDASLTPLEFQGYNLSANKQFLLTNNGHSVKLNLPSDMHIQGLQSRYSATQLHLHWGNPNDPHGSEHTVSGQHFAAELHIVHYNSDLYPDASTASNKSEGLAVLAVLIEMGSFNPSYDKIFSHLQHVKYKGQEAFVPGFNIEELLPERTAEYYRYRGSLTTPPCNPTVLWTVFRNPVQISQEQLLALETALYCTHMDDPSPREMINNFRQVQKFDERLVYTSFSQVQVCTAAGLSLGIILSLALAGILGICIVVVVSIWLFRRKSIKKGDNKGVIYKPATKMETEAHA
hCA I, sequence (P00915 whole entry): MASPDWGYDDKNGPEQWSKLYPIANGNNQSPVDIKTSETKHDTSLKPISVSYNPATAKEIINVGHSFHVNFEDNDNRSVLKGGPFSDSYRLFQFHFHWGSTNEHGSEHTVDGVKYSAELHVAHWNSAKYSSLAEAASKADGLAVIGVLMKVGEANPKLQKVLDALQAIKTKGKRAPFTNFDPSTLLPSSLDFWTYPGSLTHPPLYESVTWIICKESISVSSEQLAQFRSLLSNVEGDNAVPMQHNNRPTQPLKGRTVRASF
T2 sequence (Q8NER1 whole entry): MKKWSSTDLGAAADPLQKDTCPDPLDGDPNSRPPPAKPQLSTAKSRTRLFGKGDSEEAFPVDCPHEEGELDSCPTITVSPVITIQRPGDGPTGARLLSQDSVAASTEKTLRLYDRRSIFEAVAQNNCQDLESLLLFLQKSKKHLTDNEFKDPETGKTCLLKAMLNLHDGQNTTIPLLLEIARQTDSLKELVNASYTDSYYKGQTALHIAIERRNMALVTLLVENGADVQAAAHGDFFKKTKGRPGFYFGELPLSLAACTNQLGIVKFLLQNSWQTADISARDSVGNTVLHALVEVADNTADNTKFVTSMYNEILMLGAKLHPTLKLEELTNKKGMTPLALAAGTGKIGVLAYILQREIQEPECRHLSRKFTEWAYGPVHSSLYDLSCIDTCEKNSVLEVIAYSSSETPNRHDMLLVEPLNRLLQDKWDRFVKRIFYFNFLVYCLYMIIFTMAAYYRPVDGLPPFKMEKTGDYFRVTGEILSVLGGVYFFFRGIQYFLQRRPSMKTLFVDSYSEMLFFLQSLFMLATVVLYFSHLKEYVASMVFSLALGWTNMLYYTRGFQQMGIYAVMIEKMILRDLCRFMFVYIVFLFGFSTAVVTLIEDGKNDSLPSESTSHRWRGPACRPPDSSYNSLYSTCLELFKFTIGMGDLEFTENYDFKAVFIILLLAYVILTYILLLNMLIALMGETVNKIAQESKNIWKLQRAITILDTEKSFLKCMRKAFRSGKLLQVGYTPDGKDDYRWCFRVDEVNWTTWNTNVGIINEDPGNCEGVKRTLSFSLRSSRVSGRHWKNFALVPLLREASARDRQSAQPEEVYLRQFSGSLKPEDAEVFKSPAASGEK

Row | SMILES | Ki [1] [nM] | Ki [2] [nM] | Ki [3] [nM] | Ki [4] [nM] | EC50 [5] | Ki [6] [nM] | Ki [7] [nM] | fold more active than its enantiomer, hCA IX [4]
1 | COc1ccccc1NC(=O)N[C@@H]1CCN(c2ccc(S(N)(=O)=O)cn2)C1 [18a, (R)-6-(3-(3-(2-Methoxyphenyl)ureido)pyrrolidin-1-yl)pyridine-3-sulfonamide] | 287 | 73.5 | 5080 | 36.1 | > 100000 nM | 72.2 | 68.7 | 
2 | NS(=O)(=O)c1ccc(N2CC[C@@H](NC(=O)Nc3ccccc3Cl)C2)nc1 [12a, (R)-6-(3-(3-(2-Chlorophenyl)ureido)pyrrolidin-1-yl)pyridine-3-sulfonamide] |  | 82.5 | 3000 | 316 | 11900 nM | 83.6 | 73.5 | 
3 | NS(=O)(=O)c1ccc(N2CC[C@@H](NC(=O)Nc3ccc(Oc4ccccc4)cc3)C2)nc1 [13a, (R)-6-(3-(3-(4-Phenoxyphenyl)ureido)pyrrolidin-1-yl)pyridine-3-sulfonamide] |  |  |  | 245 | > 100000 nM | 407 | 76.9 | 
4 | NS(=O)(=O)c1cccc(NC(=S)N[C@@H]2CCN(c3ccc(C(F)(F)F)cn3)C2)c1 [40a, (R)-3-(3-(1-(5-(Trifluoromethyl)pyridin-2-yl)pyrrolidin-3-yl)thioureido)benzenesulfonamide] |  | 490 |  | 36.4 | 21900 nM |  | 55.1 | 
5 | NS(=O)(=O)c1ccc(NC(=S)N[C@@H]2CCN(c3ccc(C(F)(F)F)cn3)C2)cc1 [39a, (R)-4-(3-(1-(5-(Trifluoromethyl)pyridin-2-yl)pyrrolidin-3-yl)thioureido)benzenesulfonamide] |  |  | 4970 | 355 | 12500 nM and 12400 nM | 62.5 | 73.3 | 
6 | NS(=O)(=O)c1ccc(N2CC[C@@H](NC(=O)Nc3ccc4c(c3)OCCO4)C2)nc1 [15a, (R)-6-(3-(3-(2,3-Dihydrobenzo[b][1,4]dioxin-6-yl)ureido)pyrrolidin-1-yl)pyridine-3-sulfonamide] | 50.2 | 72.2 | 3560 | 192 | > 100000 nM | 6.7 | 9.4 | 
7 | NS(=O)(=O)c1ccc(N2CC[C@@H](NC(=S)Nc3ccccc3F)C2)nc1 [21a, (R)-6-(3-(3-(2-Fluorophenyl)thioureido)pyrrolidin-1-yl)pyridine-3-sulfonamide] | 14.9 | 31.3 | 3090 | 378 | > 100000 nM | 8.3 |  | 
8 | NS(=O)(=O)c1cccc(NC(=O)N[C@@H]2CCN(c3ccc(C(F)(F)F)cn3)C2)c1 [46a, (R)-3-(3-(1-(5-(Trifluoromethyl)pyridin-2-yl)pyrrolidin-3-yl)ureido)benzenesulfonamide] | 8.4 | 199 |  |  | 37300 nM | 6.6 |  | 
9 | NS(=O)(=O)c1cccc(NC(=S)N[C@@H]2CCN(c3cccc([N+](=O)[O-])n3)C2)c1 [38a, (R)-3-(3-(1-(6-Nitropyridin-2-yl)pyrrolidin-3-yl)thioureido)benzenesulfonamide] | 8.6 | 78.5 | 238 | 162 | 44200 nM | 238 | 83.6 | 
10 | NS(=O)(=O)c1ccc(NC(=O)N[C@@H]2CCN(c3ccc(C(F)(F)F)cn3)C2)cc1 [45a, (R)-4-(3-(1-(5-(Trifluoromethyl)pyridin-2-yl)pyrrolidin-3-yl)ureido)benzenesulfonamide] | 27.4 | 72.4 | 3900 | 36.7 |  | 6.3 | 8.2 | 
11 | NS(=O)(=O)c1ccc(NC(=S)N[C@H]2CCN(c3ccc(C(F)(F)F)cn3)C2)cc1 [39b, (S)-4-(3-(1-(5-(Trifluoromethyl)pyridin-2-yl)pyrrolidin-3-yl)thioureido)benzenesulfonamide] |  |  | 9720 | 6 | 12500 nM | 9.4 | 15.7 | 
12 | NS(=O)(=O)c1ccc(N2CC[C@@H](NC(=O)Nc3c(F)cc(F)cc3Br)C2)nc1 [22a, (R)-6-(3-(3-(2-Bromo-4,6-difluorophenyl)ureido)pyrrolidin-1-yl)pyridine-3-sulfonamide] | 446 |  | 4880 |  | > 100000 nM | 8.1 | 41.1 | 
13 | NS(=O)(=O)c1ccc(N2CC[C@@H](NC(=O)Nc3ccc(F)cc3)C2)nc1 [7a, (R)-6-(3-(3-(4-Fluorophenyl)ureido)pyrrolidin-1-yl)pyridine-3-sulfonamide] | 15.1 |  | 2660 | 32.2 | > 100000 nM | 59.3 | 6.6 | 
14 | NS(=O)(=O)c1ccc(N2CC[C@@H](NC(=O)Nc3ccc(Cl)c(Cl)c3)C2)nc1 [14a, (R)-6-(3-(3-(3,4-Dichlorophenyl)ureido)pyrrolidin-1-yl)pyridine-3-sulfonamide] | 82.2 |  | 4900 |  | > 100000 nM | 7.2 | 26.5 | 
15 | NS(=O)(=O)c1ccc(N2CC[C@@H](NC(=O)Nc3ccccc3F)C2)nc1 [11a, (R)-6-(3-(3-(2-Fluorophenyl)ureido)pyrrolidin-1-yl)pyridine-3-sulfonamide] |  | 37 |  |  | > 100000 nM | 73 | 187 | 
16 | NS(=O)(=O)c1cccc(NC(=S)N[C@@H]2CCN(c3ccccn3)C2)c1 [36a, (R)-3-(3-(1-(Pyridin-2-yl)pyrrolidin-3-yl)thioureido)benzenesulfonamide] | 9.6 | 85.1 | 320 |  | > 100000 nM |  | 55.4 | 
17 | NS(=O)(=O)c1cccc(NC(=O)N[C@@H]2CCN(c3cccc([N+](=O)[O-])n3)C2)c1 [44a, (R)-3-(3-(1-(6-Nitropyridin-2-yl)pyrrolidin-3-yl)ureido)benzenesulfonamide] | 6.1 | 76 | 2100 | 971 |  | 37.9 | 74.8 | 
18 | NS(=O)(=O)c1ccc(N2CC[C@H](NC(=O)Nc3ccc4c(c3)OCCO4)C2)nc1 [15b, (S)-6-(3-(3-(2,3-Dihydrobenzo[b][1,4]dioxin-6-yl)ureido)pyrrolidin-1-yl)pyridine-3-sulfonamide] | 400 | 545 | 5720 | 82 |  | 62.9 | 29.5 | 
19 | NS(=O)(=O)c1ccc(N2CC[C@@H](NC(=O)Nc3ccc([N+](=O)[O-])cc3)C2)nc1 [19a, (R)-6-(3-(3-(4-Nitrophenyl)ureido)pyrrolidin-1-yl)pyridine-3-sulfonamide] | 437 | 252 |  | 145 | > 100000 nM | 57.4 | 56.1 | 
20 | NS(=O)(=O)c1ccc(NC(=S)N[C@@H]2CCN(c3ccccn3)C2)cc1 [35a, (R)-4-(3-(1-(Pyridin-2-yl)pyrrolidin-3-yl)thioureido)benzenesulfonamide] |  | 48 | 774 | 9.6 | > 100000 nM | 9 | 9.7 | 
21 | NS(=O)(=O)c1ccc(N2CC[C@@H](NC(=S)Nc3ccc(C4c5ccc(O)cc5Oc5cc(O)ccc54)c(C(=O)O)c3)C2)nc1 [17a, (R)-2-(3,6-Dihydroxy-9H-xanthen-9-yl)-5-(3-(1-(5-sulfamoylpyridin-2-yl)pyrrolidin-3-yl)thioureido)benzoic Acid] | 42.2 | 80.6 | 849 | 32 |  | 3.9 | 7.8 | 
22 | NS(=O)(=O)c1ccc(N2CC[C@@H](NC(=O)Nc3ccc(Cl)c(C(F)(F)F)c3)C2)nc1 [10a, (R)-6-(3-(3-(4-Chloro-3-(trifluoromethyl)phenyl)ureido)pyrrolidin-1-yl)pyridine-3-sulfonamide] |  | 788 | 4020 | 737 | 74500 nM |  | 78.6 | 
23 | NS(=O)(=O)c1ccc(NC(=O)N[C@H]2CCN(c3cccc([N+](=O)[O-])n3)C2)cc1 [43b, (S)-4-(3-(1-(6-Nitropyridin-2-yl)pyrrolidin-3-yl)ureido)benzenesulfonamide] | 14.9 | 76.2 | 8230 | 26.9 |  | 9.1 | 8.7 | 
24 | NS(=O)(=O)c1cccc(NC(=S)N[C@H]2CCN(c3cccc([N+](=O)[O-])n3)C2)c1 [38b, (S)-3-(3-(1-(6-Nitropyridin-2-yl)pyrrolidin-3-yl)thioureido)benzenesulfonamide] | 3.9 | 8.7 | 1300 | 1.4 |  | 9.3 | 15.6 | over 100 fold
